The subject of assay [1] is astrocytes transfected with GLUT1 siRNA. Briefly: Lactate secretion, GLUT1 siRNA astrocytes (cellular model of GLUT1-DS). It is filed as cell-based, mouse. Particulars: vs vehicle. How it is done: Secretion of L-lactate was measured in the extracellular medium of 96-well plated astrocytes after 90 min stimulation (at 37° C., in 5% CO2/95% air conditions) with Vehicle (DMSO), the compounds of the invention (100 nM to 100 μM) or positive control. […] Stimulation medium was composed of D5030 medium complemented with 5 mM D-glucose and 44 mM sodium bicarbonate, pH 7.2. To quantify lactate concentrations in the extracellular medium, 200 μl of a 0.2M Glycine-semicarbazide buffer (pH 10) containing 3 mM NAD and 14 U/ml LDH was added to each well of a 96-well plate containing 30 μl aliquots of extracellular medium. Samples were incubated at 37° C. for 1 h. Fluorescence intensity (340 nm excitation/450 nm emission), which represents the amount of NADH produced, was measured, and lactate concentration values were determined relative to a standard curve of L-lactate concentrations.
(§1) Scramble and GLUT1 siRNA sequences were as following:
Cells were grown in transfection medium for 3 days at 37° C. in a humidified atmosphere containing 5% CO2/95% air. After 3 days, transfection medium was replaced with DMEM D5030 supplemented with 44 mM NaHCO3 and 5 mM D-Glucose (1 ml per well).
Lactate secretion after treatment with Veh or compound of the invention (1) was measured in astrocytes transfected with scramble siRNA or GLUT1 siRNA (FIG. 4B).

The test system is the same in assay [2]. As to the kind of experiment: 2-deoxyglucose (2DG) uptake, GLUT1 siRNA astrocytes (cellular model of GLUT1-DS). It is filed as cell-based, mouse. Particulars: 30 min treatment, 1 or 10 μM, vs vehicle. The procedure: Astrocytes grown on 12-well plates and transfected with either scramble siRNA or GLUT1 siRNA were used. 1 day after having replaced transfection medium (DIV13), 2DG uptake was measured after treatment for 30 min with Vehicle (0.1% DMSO) or with the compound of the invention (1) (concentrations of 1 or 10 μM). During treatment, 1 mM 2DG was added to the medium for assessment of 2DG uptake. At the end of the stimulation, medium was removed and replaced with 150 μl NaOH 0.1M, and stored at −20° C. After thawing, cells were collected using cell scraper and heated for 40 min at 85° C. Then, 150 ul HCl 0.1M and TAE buffer 200 mM was added to each condition. 20 μl were added to a transparent 96-well plate and 2DG was quantified by addition of a reaction solution containing 50 mM TAE, 50 mM KCl, 0.02% BSA, 0.1 mM NADP, 0.2 U/ml diaphorase, 2 mM resazurin and 20 U/ml glucose-6-phosphate dehydrogenase. Concentration of 2DG in samples were calculated by comparison with standard curve of deoxy-glucose-6-phosphate ranging from 0 to 1 nmoles.
as §1
Cells were grown in transfection medium for 3 days at 37° C. in a humidified atmosphere containing 5% CO2/95% air. […]
2DG uptake after treatment with Veh or compound of the invention (1) was measured in astrocytes transfected with scramble siRNA or GLUT1 siRNA (FIG. 4A).

Assay [3] has as its system C57Bl/6 wild-type mice. As to the kind of experiment: Long-term memory test, inhibitory avoidance (IA). The assay is classed as in vivo, mouse. How it is done:
For pharmacodynamics (FIG. 5) and cognition (FIG. 7) experiments, adult male C57Bl/6J wild-type mice weighting 18-28 g (8 weeks of age) were used (Charles River). For ALS mouse models (FIG. 6), G93A SOD1 transgenic male and female mice on B6.SJL1-Gur/J background were used (Jackson Laboratory).
Animals were housed in groups of 3-5 in polypropylene cages (30×40×15 cm) with wire mesh top in a temperature (22±2° C.) and humidity (55±15%) controlled environment on a 12 hour light cycle (07.00-19.00 h lights on), except after surgeries when animal were housed individually. The samples (Vehicle or compounds of the invention) were administered per os (gavage) in a solution made of water supplemented with 0.4% hydroxypropyl methylcellulose (HPMC) Methocel 4KM (w/v) and 0.25% Tween-20 (v/v), as previously described (Thackaberry et al., 2010, Toxicol Sci., 117(2):485-92). Concentrations of the compounds tested ranged from 10 to 100 mg/kg.
IA test is a well-established memory paradigm in rodents that measures contextual memory associated with a mild electrical footshock in a specific context (the dark compartment of the IA chamber). Groups of 8-week old C57Bl/6 wild-type female mice were tested. Each mouse was handled for 5 minutes per day for at least 4 consecutive days to reduce animal's stress due to experimenter's presence/manipulation during test days. Inhibitory avoidance was carried out in an IA chamber (MedAssociates) that consists in a rectangular Perspex box divided into a safe and a shock compartment separated by an automatically operated sliding door. […] Memory retention was measured at 24 h or 3 weeks after training by placing the mouse back into the lit compartment and recording its latency (in seconds) to enter the dark compartment. […]
Memory was measured after oral administration of vehicle or compound (1) (100 mg/kg) to young adult male mice orally, and 20 min later a training for IA (FIG. 7). 24 hours and 3 weeks after training, latencies of mice to enter back into the dark compartment of the IA chamber, the place where they received the shock, were measured.

Where [4] appears, read: single dose 100 mg/kg oral before training, vs vehicle.

“Also recorded” adds a separate entry of the source.

On to `COc1cc2ccnc(Nc3ccc(OC(F)(F)F)cc3)c2cc1OC` [Example 1, 6,7-dimethoxy-N-(4-(trifluoromethoxy)phenyl)isoquinolin-1-amine], for which the Lactate secretion result in assay [1] is “restored; also recorded: significantly enhances lactate secretion”. Also, the 2DG uptake entry in assay [2] was “restored; also recorded: significantly enhances 2DG uptake”. Moreover, the “Latency to enter the dark compartment at training” value in assay [3] (100 mg/kg oral, 20 min before training) is reported as “same latencies at training”. Also, in assay [3] (setting [4]), the “Latency to enter the dark compartment, 3 weeks after training” value is “significantly higher” and the “Latency to enter the dark compartment, 24 h after training” value is reported as “significantly higher”.

The record behind these values is patent publication US11925632B2, “Isoquinoline derivatives for use in treating GLUT1 deficiency syndrome” (GLIAPHARM SA, priority 2019, dated 2024).
